{"source": "patent US9057054B2", "about": "“Antigen-specific long-term memory T-cells” (THE REGENTS OF THE UNIVERSITY OF MICHIGAN, priority 2009, dated 2015)", "key": {"[1]": {"tested_on": "P14 naive CD44loCD8+ T cells", "assay": "In vitro priming of CFSE-labeled P14 naive CD8+ T cells with gp33-pulsed DCs, IL-2 and titrated rapamycin: cell counts, CFSE division, live cell ratio", "assay_type": "cell-based, mouse", "conditions": "day 8 after culture, 50 or 100 nM rapamycin"}, "[2]": {"tested_on": "antigen-primed CD8+ T cells", "assay": "Secondary culture in the absence of IL-2 (IL-2 withdrawal), live cell ratio, with or without oligomycin", "assay_type": "cell-based, mouse"}, "[3]": {"tested_on": "antigen-primed CD8+ T cells", "assay": "Oxygen consumption and lactate production assay, share of ATP from oxidative phosphorylation and glycolysis"}}, "data": [{"smiles": "CO[C@H]1C[C@@H]2CC[C@@H](C)[C@@](O)(O2)C(=O)C(=O)N2CCCC[C@H]2C(=O)O[C@H]([C@H](C)C[C@@H]2CC[C@@H](O)[C@H](OC)C2)CC(=O)[C@H](C)/C=C(\\C)[C@@H](O)[C@@H](OC)C(=O)[C@H](C)C[C@H](C)/C=C/C=C/C=C/1C", "note": "[rapamycin]", "values": [{"measurement": "dead cells", "setting": "[1]", "value": "less than 5%"}, {"measurement": "viable cells after IL-2 withdrawal", "setting": "[2]; by 24 hours after IL-2 withdrawal", "value": "Approximately 100%"}, {"measurement": "cells remaining lived after IL-2 withdrawal", "setting": "[2]; by 74 hours after withdrawal", "value": "more than 60%"}, {"measurement": "oxygen consumption increase versus IL-2 CD8+ T cells", "setting": "[3]; cells collected 6 days after culture", "value": 2, "unit": "fold"}, {"measurement": "ATP derived from oxidative phosphorylation metabolism", "setting": "[3]; share of total ATP generation", "value": "more than 90%"}]}]}
